The record followed here is PubChem BioAssay AID1117327 (Cheminformatics & Chemogenomics Research Group (CCRG), …, 2015).

pIC50: −log10 of the molar value. “And” between values parts separate entries of the source, which are not always exact repeats. Equal entries are not always repeated. The source made the active and inactive calls. No rule for the calls is given here. Starred links: 1 amine or outer side, 2 acyl side, 3 side chain; linkers in the order of their positions; H or OH if unused. Positions of bridges follow the written chain, without caps; N, C: chain ends. Non-standard residues stand in square brackets, D forms with d. Residues, ends and D or L forms follow the SMILES beside them. Chains are numbered I, II in the order given. Actinocin(9to1) = Cc1c2oc3c(C)ccc(C(=O)[*:1])c3nc-2c(C(=O)[*:2])c(N)c1=O; NMeV = CN[C@H](C(=O)O)C(C)C; Sar = CNCC(=O)O

In the assay the test system is C2C12 + WNT3A conditioned medium, alkaline phosphatase. Briefly: alkaline phosphatase induction in C2C12 cells, dose response, cell-based, WNT3A-conditioned medium (AID 1117327).
Regarding `O=[N+]([O-])C(Br)(CO)CO`, the IC50 (as a rule, the concentration at which inhibition is half-maximal) is > 20 µM (inactive).

Take `COc1cc(NCc2ccc3nc(N)nc(N)c3c2C)cc(OC)c1OC`: the IC50 is > 20 µM (inactive).

Take `CC(=O)[C@]1(O)Cc2c(O)c3c(c(O)c2[C@@H](O[C@H]2C[C@H](N)[C@H](O)[C@H](C)O2)C1)C(=O)c1ccccc1C3=O`: the pIC50 (in general, −log10 of the IC50, conventionally taken in molar units) is 6.30.

For the compound `COC(=O)c1nc(Cl)c(Cl)nc1N`, the negative-log IC50 (pIC50) was 6.81.

As to `C=CC(=O)Nc1cc2c(Nc3ccc(F)c(Cl)c3)ncnc2cc1OCCCN1CCOCC1`, the IC50 was 9.46 µM (inactive).

For the compound `COC(=O)Nc1nc2ccc(C(=O)c3cccs3)cc2[nH]1`, the pIC50 was 7.36.

Take `CCCCC1C(=O)N(c2ccccc2)N(c2ccc(O)cc2)C1=O` (centres undefined): the negative-log IC50 (pIC50) is 5.31.

For `COc1cccc2c1C(=O)c1c(O)c3c(c(O)c1C2=O)C[C@@](O)(C(C)=O)C[C@@H]3O[C@H]1C[C@H](N)[C@H](O)[C@H](C)O1`, the pIC50 was 8.21.

As to `COCc1c(C(C)C)nc(C(C)C)c(/C=C/[C@@H](O)C[C@@H](O)CC(=O)O)c1-c1ccc(F)cc1`, the IC50 was > 20 µM (inactive).

Regarding `CCCCCCNC(=O)n1cc(F)c(=O)[nH]c1=O`, the IC50 is 5.55 µM (inactive).

As to `CCCCc1ccc2nc(NC(=O)OC)[nH]c2c1`, the pIC50 is 7.17.

`Cc1nc(N)nc(N)c1-c1ccc(Cl)c(Cl)c1`: the pIC50 was 7.52.

Consider `CC[C@@H]([C@H](C)O)n1ncn(-c2ccc(N3CCN(c4ccc(OC[C@@H]5CO[C@@](Cn6cncn6)(c6ccc(F)cc6F)C5)cc4)CC3)cc2)c1=O`, for which the pIC50 is 5.79.

For `Cc1nc(Nc2ncc(C(=O)Nc3c(C)cccc3Cl)s2)cc(N2CCN(CCO)CC2)n1`, the pIC50 is 8.17.

In the case of `C#C[C@]1(O)CC[C@H]2[C@@H]3CCc4cc(OC5CCCC5)ccc4[C@H]3CC[C@@]21C`, the IC50 is > 20 µM (inactive).

Turning to `COC(=O)Nc1nc2ccc(C(=O)C3CC3)cc2[nH]1`, the pIC50 was 6.17.

For the compound `O=C(CCl)c1ccc(Cl)cc1Cl`, the IC50 was > 20 µM (inactive).

Consider `O=c1c(-c2ccccc2)c1-c1ccccc1`, for which the pIC50 was 5.44.

As for `CN(C)CCCN1c2ccccc2Sc2ccc(C(F)(F)F)cc21`, the IC50 is > 20 µM (inactive).

For the compound `Oc1c(I)cc(Cl)c2cccnc12`, the IC50 was 5.4 µM (inactive).

With `O=C1OC2(c3cc(Br)c(O)cc3Oc3c2cc(Br)c(O)[c]3[Hg])c2ccccc21` (centres undefined), the IC50 was > 20 µM (inactive).

In the case of `OCCN1CCN(CCCN2c3ccccc3Sc3ccc(Cl)cc32)CC1`, the IC50 is > 20 µM (inactive).

Turning to `Cc1cc(=O)c2c(O)c3c(O)cc(=O)c4c3c3c(cc(O)c1c23)C(C)(C)C=4O`, the negative-log IC50 (pIC50) was 5.54.

With `COC(=O)[C@H]1[C@H]2C[C@@H]3c4[nH]c5cc(OC)ccc5c4CCN3C[C@H]2C[C@@H](OC(=O)/C=C/c2ccc(O)c(OC)c2)[C@@H]1OC`, the IC50 was 10.4 µM (inactive).

In the case of `CC(C)(C)C(=O)OCOP(=O)(COCCn1cnc2c(N)ncnc21)OCOC(=O)C(C)(C)C`, the pIC50 is 6.41.

On to `Cc1cc2c(C(C)C)c(O)c(O)c(C=O)c2c(O)c1-c1c(C)cc2c(C(C)C)c(O)c(O)c(C=O)c2c1O`, for which the IC50 was > 20 µM (inactive).

Turning to `CCCCCCCCCCCCNCCNCCNCC(=O)O`, the IC50 was > 20 µM (inactive).

Consider `CN(C)C(=S)SSC(=S)N(C)C`, for which the IC50 was > 20 µM (inactive).

Turning to `COc1ccc2cc1Oc1ccc(cc1)C[C@H]1c3c(cc4c(c3Oc3cc5c(cc3OC)CCN(C)[C@@H]5C2)OCO4)CCN1C`, the negative logarithm of the IC50 (pIC50) is 5.69.

Take `CN(Cc1cnc2nc(N)nc(N)c2n1)c1ccc(C(=O)N[C@@H](CCC(=O)O)C(=O)O)cc1`: the pIC50 was 7.94.

Regarding `COc1cc([C@@H]2c3cc4c(cc3[C@@H](O[C@@H]3O[C@@H]5CO[C@@H](C)O[C@@H]5[C@H](O)[C@@H]3O)[C@H]3COC(=O)[C@H]23)OCO4)cc(OC)c1O`, the IC50 was > 20 µM (inactive).

In the case of `Cc1ccc2nc(N)[nH]c(=O)c2c1Sc1ccncc1`, the pIC50 is 6.61.

As for `CCCCCCCCCCCCCC[N+](C)(C)C`, the IC50 is > 20 µM (inactive).

On to `COc1cc(C=C2CCC/C(=C\c3ccc(O)c(OC)c3)C2=O)ccc1O`, for which the IC50 is > 20 µM (inactive).

Take `Cc1cc(O)c2ccccc2c1O`: the negative logarithm of the IC50 (pIC50) was 5.76.

On to `CSc1ccc2c(c1)C(N1CCN(C)CC1)Cc1ccccc1S2` (centres undefined), for which the IC50 was > 20 µM (inactive).

Take `CCCCCCCCCCCC(=O)[O][Sn]([CH2]CCC)([CH2]CCC)[O]C(=O)CCCCCCCCCCC`: the IC50 was > 20 µM (inactive).

As to `NC(N)=NN=C(/C=C/c1ccc([N+](=O)[O-])o1)/C=C/c1ccc([N+](=O)[O-])o1`, the pIC50 was 6.43.

As to `Oc1c(Cl)cc(Cl)cc1Sc1cc(Cl)cc(Cl)c1O`, the IC50 was > 20 µM (inactive).

With `CCC1=C[C@@H]2CN(C1)Cc1c([nH]c3ccccc13)[C@@](C(=O)OC)(c1cc3c(cc1OC)N(C)[C@H]1[C@@](O)(C(=O)OC)[C@H](OC(C)=O)[C@]4(CC)C=CCN5CC[C@]31[C@@H]54)C2`, the negative logarithm of the IC50 (pIC50) was 8.00.

Turning to `CC(C)C[C@H](NC(=O)[C@H](CCc1ccccc1)NC(=O)CN1CCOCC1)C(=O)N[C@@H](Cc1ccccc1)C(=O)N[C@@H](CC(C)C)C(=O)[C@@]1(C)CO1`, the pIC50 is 7.82.

Regarding `COc1cccc2c1C(=O)c1c(O)c3c(c(O)c1C2=O)C[C@@](O)(C(=O)CO)CC3OC1CC(N2CCOC(OC)C2)C(O)C(C)O1` (some centres undefined), the IC50 was > 20 µM (inactive).

Take `CCN(CC)CCNc1ccc(CO)c2sc3ccccc3c(=O)c12`: the pIC50 was 5.57.

Regarding `Cc1c2oc3c(C)ccc(C(=O)N[C@@H]4C(=O)N[C@H](C(C)C)C(=O)N5CCC[C@H]5C(=O)N(C)CC(=O)N(C)[C@@H](C(C)C)C(=O)O[C@@H]4C)c3nc-2c(C(=O)N[C@@H]2C(=O)N[C@H](C(C)C)C(=O)N3CCC[C@H]3C(=O)N(C)CC(=O)N(C)[C@@H](C(C)C)C(=O)O[C@@H]2C)c(N)c1=O` (I: T[dV]P[Sar][NMeV] / II: T[dV]P[Sar][NMeV]; ester I:1-I:C, II:1-II:C; linker I:N-II:N via Actinocin(9to1)), the negative-log IC50 (pIC50) is 8.82.

With `C[n+]1c2cc(N)ccc2cc2ccc(N)cc21` (tested in a mixture with another compound), the pIC50 is 5.80.

On to `O=C1c2c(O)ccc(O)c2C(=O)c2c(NCCNCCO)ccc(NCCNCCO)c21`, for which the pIC50 is 5.82.

For the compound `Nc1ccc2cc3ccc(N)cc3nc2c1`, the IC50 was > 20 µM (inactive).

As for `Cc1ccc([N+](=O)[O-])[c]2c1[O][Hg]2`, the pIC50 was 6.81.

On to `COC(=O)Nc1nc2ccc(C(=O)c3ccccc3)cc2[nH]1`, for which the pIC50 is 6.61.

`c1ccc2c(c1)Sc1ccccc1N2CC1CN2CCC1CC2` (centres undefined): the IC50 is > 20 µM (inactive).

For `COc1cccc2c1C(=O)c1c(O)c3c(c(O)c1C2=O)C[C@@](O)(C(=O)CO)C[C@@H]3O[C@H]1C[C@H](N)[C@H](O[C@@H]2CCCCO2)[C@H](C)O1`, the pIC50 was 5.40.

For `CC[C@@]1(O)C(=O)OCc2c1cc1n(c2=O)Cc2c-1nc1ccccc1c2/C=N/OC(C)(C)C`, the negative logarithm of the IC50 (pIC50) was 8.49.

Consider `[O-][n+]1ccccc1SSc1cccc[n+]1[O-]`, for which the pIC50 was 6.88.

With `CCc1nc(N)nc(N)c1-c1ccc(Cl)cc1`, the pIC50 was 7.17.

Turning to `Cc1ccccc1C(=O)Nc1ccc(C(=O)N2CCCC(N(C)C)c3ccccc32)cc1` (centres undefined), the IC50 is 9.98 µM (inactive).

On to `CC[C@]1(O)C[C@H]2CN(CCc3c([nH]c4ccccc34)[C@@](C(=O)OC)(c3cc4c(cc3OC)N(C=O)[C@H]3[C@@](O)(C(=O)OC)[C@H](OC(C)=O)[C@]5(CC)C=CCN6CC[C@]43[C@@H]65)C2)C1`, for which the negative logarithm of the IC50 (pIC50) is 8.29.

As to `NC(=NCCCCCCN=C(N)/N=C(\N)Nc1ccc(Cl)cc1)/N=C(\N)Nc1ccc(Cl)cc1`, the IC50 is > 20 µM (inactive).

For `CN1C[C@H](CNC(=O)OCc2ccccc2)C[C@@H]2c3cccc4c3c(cn4C)C[C@H]21`, the IC50 was > 20 µM (inactive).

On to `CN(C)c1ccc(C(=C2C=CC(=[N+](C)C)C=C2)c2ccccc2)cc1`, for which the negative logarithm of the IC50 (pIC50) is 6.44.

For `O=C1C(I)=CC(=C(c2cc(I)c(O)c(I)c2)c2ccccc2C(=O)O)C=C1I`, the IC50 was > 20 µM (inactive).

As for `CCCOc1ccc2nc(NC(=O)OC)[nH]c2c1`, the negative-log IC50 (pIC50) is 7.06.

On to `Cc1ccc2c(Br)cc(Br)c(O)c2n1`, for which the IC50 is > 20 µM (inactive).

On to `Cc1cc(C2CCCCC2)n(O)c(=O)c1`, for which the pIC50 is 5.98.

Turning to `CCCN(CCC)C(=O)C(CCC(=O)OCCCN1CCN(CCOC(=O)Cc2c(C)n(C(=O)c3ccc(Cl)cc3)c3ccc(OC)cc23)CC1)NC(=O)c1ccccc1` (centres undefined), the IC50 was 13.2 µM (inactive).

Take `Cc1nc2ccc(CN(C)c3ccc(C(=O)N[C@@H](CCC(=O)O)C(=O)O)s3)cc2c(=O)[nH]1`: the negative logarithm of the IC50 (pIC50) was 8.38.

Regarding `CC[C@]1(O)C[C@@H]2CN(CCc3c([nH]c4ccccc34)[C@@](C(=O)OC)(c3cc4c(cc3OC)N(C)[C@H]3[C@@](O)(C(=O)OC)[C@H](OC(C)=O)[C@]5(CC)C=CCN6CC[C@]43[C@@H]65)C2)C1`, the IC50 is > 20 µM (inactive) and 8.9 nM.

`O=C(Nc1ccc([N+](=O)[O-])cc1Cl)c1cc(Cl)ccc1O`: the IC50 was > 20 µM (inactive).

In the case of `CC(=O)Oc1ccc(C2(c3ccc(OC(C)=O)cc3)Oc3ccccc3NC2=O)cc1`, the IC50 was 14 µM (inactive).

Regarding `CCCCCCCCCCCCCCC[C@H](O)[C@@H](N)CO`, the IC50 was > 20 µM (inactive).

Regarding `Cc1cc(CC(C)CC(C)(C)C)n(O)c(=O)c1` (centres undefined), the IC50 was > 20 µM (inactive).

As for `C=C(C)[C@H]1Cc2c(ccc3c2O[C@@H]2COc4cc(OC)c(OC)cc4[C@@H]2C3=O)O1`, the negative logarithm of the IC50 (pIC50) is 6.60.

Consider `COc1cc([C@@H]2c3cc4c(cc3[C@H](O)[C@H]3COC(=O)[C@H]23)OCO4)cc(OC)c1OC`, for which the negative-log IC50 (pIC50) is 8.04.

For `CCCSc1ccc2nc(NC(=O)OC)[nH]c2c1`, the IC50 is 12.3 µM (inactive).

For `CN1CC[C@H](c2c(O)cc(O)c3c(=O)cc(-c4ccccc4Cl)oc23)[C@H](O)C1`, the pIC50 is 6.34.

Take `Clc1cc(Cl)c(OCC#CI)cc1Cl`: the IC50 is > 20 µM (inactive).

On to `CCCCCCCCCCCCCC[N+](C)(C)Cc1ccccc1`, for which the IC50 is > 20 µM (inactive).

On to `O=[N+]([O-])c1ccc(O)c2ncccc12`, for which the IC50 was 6.36 µM (inactive).

`C[C@@]12C(=O)OC(=O)[C@]1(C)C1CCC2O1`: the pIC50 is 5.83.

As to `CCCCCCCCCCOCC(O)CN` (centres undefined), the IC50 is > 20 µM (inactive).
